System: 596521-263-R-J1-PDC complex spheroids, viability % of control
Assay: Anticancer human tumor 596521-263-R-J1-PDC patient-derived soft tissue sarcoma cell line growth inhibition [GQUAD]
Settings: for IC50: curve of first compound; for viability, T/C: stronger effect = lower value
How it was run: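 Tumor cells were grown as complex spheroids with HUVEC endothelial cells and mesenchymal stem cells as stroma. G-quadruplex stabilizers were combined with targeted agents over half-log dilutions from near the clinical Cmax, or from 10 microM.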

[1] = second compound 0.0316 µM, first compound 0.0316 µM
[2] = second compound 0.0316 µM, first compound 0.1 µM
[3] = second compound 0.0316 µM, first compound 0.316 µM
[4] = second compound 0.0316 µM, first compound 1 µM
[5] = second compound 0.0316 µM, first compound 3.16 µM
[6] = second compound 0.0316 µM, first compound 10 µM
[7] = second compound 0.1 µM, first compound 0.0316 µM
[8] = second compound 0.1 µM, first compound 0.1 µM
[9] = second compound 0.1 µM, first compound 0.316 µM
[10] = second compound 0.1 µM, first compound 1 µM
[11] = second compound 0.1 µM, first compound 3.16 µM
[12] = second compound 0.1 µM, first compound 10 µM
[13] = second compound 0.316 µM, first compound 0.0316 µM
[14] = second compound 0.316 µM, first compound 0.1 µM
[15] = second compound 0.316 µM, first compound 0.316 µM
[16] = second compound 0.316 µM, first compound 1 µM
[17] = second compound 0.316 µM, first compound 3.16 µM
[18] = second compound 0.316 µM, first compound 10 µM
[19] = second compound 1 µM, first compound 0.0316 µM
[20] = second compound 1 µM, first compound 0.1 µM
[21] = second compound 1 µM, first compound 0.316 µM
[22] = second compound 1 µM, first compound 1 µM
[23] = second compound 1 µM, first compound 3.16 µM
[24] = second compound 1 µM, first compound 10 µM
[25] = second compound 3.16 µM, first compound 0.0316 µM
[26] = second compound 3.16 µM, first compound 0.1 µM
[27] = second compound 3.16 µM, first compound 0.316 µM
[28] = second compound 3.16 µM, first compound 1 µM
[29] = second compound 3.16 µM, first compound 3.16 µM
[30] = second compound 3.16 µM, first compound 10 µM
[31] = second compound 10 µM, first compound 0.0316 µM
[32] = second compound 10 µM, first compound 0.1 µM
[33] = second compound 10 µM, first compound 0.316 µM
[34] = second compound 10 µM, first compound 1 µM
[35] = second compound 10 µM, first compound 3.16 µM
[36] = second compound 10 µM, first compound 10 µM
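Further: spheroids exposed to drugs for 7 days before viability reading.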
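Wherever viability, T/C is given: 100% = DMSO vehicle control viability.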

Molecule COc1ncnc(C2CC2)c1-c1ncc2cnn(Cc3ccc(-c4nc(C(F)(F)F)cn4C(C)C)cc3)c2n1 + Cc1[nH]c2ccc(F)cc2c1-c1nc2c3cccnc3c3ncccc3c2[nH]1 has an IC50 (second compound 0.0316 µM) of 1.46 µM, an IC50 (second compound 0.1 µM) of 1.5 µM and an IC50 (second compound 0.316 µM) of 1.19 µM. For the same molecule, the IC50 (second compound 1 µM) was 1.19 µM, the IC50 (second compound 3.16 µM) was 1.2 µM and the IC50 (second compound 10 µM) was 0.991 µM. It also gave a viability, T/C [1] of 100%, a viability, T/C [2] of 88.8% and a viability, T/C [3] of 79.6%. For the same molecule, the viability, T/C [4] was 56.9%, the viability, T/C [5] was 33.5% and the viability, T/C [6] was 2.52%. It also gave a viability, T/C [7] of 98.8%, a viability, T/C [8] of 90.4% and a viability, T/C [9] of 75.6%. The viability, T/C [10] was 67%, the viability, T/C [11] was 27.1% and the viability, T/C [12] was 2.12%. For the same molecule, the viability, T/C [13] was 85.8%, the viability, T/C [14] was 95.4% and the viability, T/C [15] was 80.3%. For the same molecule, the viability, T/C [16] was 49.7%, the viability, T/C [17] was 27.8% and the viability, T/C [18] was 1.85%. The viability, T/C [19] was 87.2%, the viability, T/C [20] was 78.8% and the viability, T/C [21] was 75%. For the same molecule, the viability, T/C [22] was 49.9%, the viability, T/C [23] was 31.1% and the viability, T/C [24] was 1.7%. For the same molecule, the viability, T/C [25] was 84.9%, the viability, T/C [26] was 95.3% and the viability, T/C [27] was 68.5%. For the same molecule, the viability, T/C [28] was 53.9%, the viability, T/C [29] was 29.4% and the viability, T/C [30] was 2.26%. For the same molecule, the viability, T/C [31] was 95.4%, the viability, T/C [32] was 76.7% and the viability, T/C [33] was 71.3%. For the same molecule, the viability, T/C [34] was 54.6%, the viability, T/C [35] was 20.6% and the viability, T/C [36] was 1.93%.

CC(C)n1c(=O)n(C)c2cnc3cc(F)c(-c4ccc(OCCCN5CCCCC5)nc4)cc3c21 + Cc1cnc(CNC(=O)c2c(=O)c3ccc(N4CCCN(C)CC4)nc3n3c2sc2ccccc23)cn1 showed an IC50 (second compound 0.0316 µM) greater than 10 µM, an IC50 (second compound 0.1 µM) greater than 10 µM and an IC50 (second compound 0.316 µM) greater than 10 µM. The IC50 (second compound 1 µM) was greater than 10 µM, the IC50 (second compound 3.16 µM) was 0.224 µM and the IC50 (second compound 10 µM) was less than 0.0316 µM. It also gave a viability, T/C [1] of 82.1%, a viability, T/C [2] of 67% and a viability, T/C [3] of 78.3%. The viability, T/C [4] was 73%, the viability, T/C [5] was 75.5% and the viability, T/C [6] was 61.9%. It also gave a viability, T/C [7] of 70.6%, a viability, T/C [8] of 61.3% and a viability, T/C [9] of 68.2%. The viability, T/C [10] was 63.9%, the viability, T/C [11] was 58.6% and the viability, T/C [12] was 57.8%. The viability, T/C [13] was 69.3%, the viability, T/C [14] was 67.3% and the viability, T/C [15] was 63.5%. For the same molecule, the viability, T/C [16] was 62.5%, the viability, T/C [17] was 62.4% and the viability, T/C [18] was 47.6%. For the same molecule, the viability, T/C [19] was 63.8%, the viability, T/C [20] was 61.8% and the viability, T/C [21] was 52.3%. The viability, T/C [22] was 54.3%, the viability, T/C [23] was 64.4% and the viability, T/C [24] was 48.3%. For the same molecule, the viability, T/C [25] was 51.6%, the viability, T/C [26] was 53.3% and the viability, T/C [27] was 49.7%. For the same molecule, the viability, T/C [28] was 46.4%, the viability, T/C [29] was 42.5% and the viability, T/C [30] was 40.3%. It also gave a viability, T/C [31] of 51.8%, a viability, T/C [32] of 44.7% and a viability, T/C [33] of 44.9%. For the same molecule, the viability, T/C [34] was 44.9%, the viability, T/C [35] was 46.7% and the viability, T/C [36] was 9.8%.
